Source: patent US20080153873A1, “DIHYDROBENZOFURANYL DERIVATIVES AND METHODS OF THEIR USE” (Wyeth, priority 2006, published 2008)
Counter-ions that a name gives are not always drawn.

Target: T1, human hNET (Homo sapiens, UniProt P23975)
T1 construct: expressed in transfected cells; host or cells: MDCK-Net6 cells (MDCK, stably transfected)
Test: Functional Norepinephrine (NE) Uptake Assay in MDCK-Net6 cells
Assay type: cell-based
Conditions: % inhibition of NE uptake @ 6 μM; MDCK-Net6 cells; read-out: hNET IC50 (nM) (% Inhibition)
Method: MDCK-Net6 cells, stably transfected with human hNET (Pacholczyk, T., R. D. Blakely, and S. G. Amara, Nature, 1991, 350(6316): p. 350-4) were cultured in growth medium containing high glucose DMEM (Gibco, Cat. No. 11995), 10% FBS (dialyzed, heat-inactivated, US Bio-Technologies, Lot FBD1129HI) and 500 μg/ml G418 (Gibco, Cat. No. 10131). Cells were plated at 300,000 T75 flask and cells were split twice weekly.
On day 1, cells were plated at 3,000 cells/well in growth medium and maintained in a cell incubator (37° C., 5% CO2). On day 2, growth medium was replaced with 200 μl of assay buffer (25 mM HEPES; 120 mM NaCl; 5 mM KCl; 2.5 mM CaCl2; 1.2 mM MgSO4; 2 mg/ml glucose (pH 7.4, 37° C.)) containing 0.2 mg/ml ascorbic acid and 1 μM pargyline. For screening, 25 μl of compound in 4% DMSO was added directly to each well and the plate is incubated for 5 minutes at 37° C.
To initiate the norepinephrine reuptake, 16 nM (final concentration) of ^3H norepinephrine (specific activity; 40-80 Ci/mmol) in assay buffer was delivered in 25 μl aliquots to each well, and the plates were incubated for 5 minutes at 37° C. The reaction was aspirated from the plate and the cells washed with 250 μl of 50 mM Tris Buffer (4° C.). The plates were left to dry for 1 hour. The cells were lysed using 0.25 M NaOH solution then placed on a shake table and vigorously shaken for 10 minutes. After cell lysis, 100 μl of Microscint 20 (PerkinElmer; #87-051101) were added to the plates and the plates were sealed with film tape and replaced on the shake table for a minimum of 10 minutes. The plates were counted in a TopCount counter (PerkinElmer).
For screening single point determinations, each compound plate contains at least 3 control wells (maximum NE reuptake determinant) and 3 non-specific wells determined by adding 20 μM of desipramine (minimum NE reuptake determinant). Determination of active compounds are calculated using a Microsoft Excel spread sheet applying the following formula:
% inhibition=[1−((mean cpm test compound wells−mean cpm non-specific wells)/(mean cpm control wells−mean cpm non-specific wells))]×100
For IC50 determination, raw cpm values were generated in a data file from the TopCount counter. The data was organized using Microsoft Excel and transferred into PRIZM graphing and statistical program, which calculates the estimated IC50 value. Calculation of IC50 values were made using non-linear regression analysis with a sigmoidal dose response with variable slope. The statistical program used wells containing ^3H norepinephrine only as the maximal NE reuptake determinant and wells containing ^3H norepinephrine plus 20 μM desipramine as the minimal NE reuptake determinant (non-specific determinant). Estimation of the IC50 value was completed on a log scale and the line was fit between the maximal and minimal NE reuptake values.

T1 sequence (P23975 whole entry): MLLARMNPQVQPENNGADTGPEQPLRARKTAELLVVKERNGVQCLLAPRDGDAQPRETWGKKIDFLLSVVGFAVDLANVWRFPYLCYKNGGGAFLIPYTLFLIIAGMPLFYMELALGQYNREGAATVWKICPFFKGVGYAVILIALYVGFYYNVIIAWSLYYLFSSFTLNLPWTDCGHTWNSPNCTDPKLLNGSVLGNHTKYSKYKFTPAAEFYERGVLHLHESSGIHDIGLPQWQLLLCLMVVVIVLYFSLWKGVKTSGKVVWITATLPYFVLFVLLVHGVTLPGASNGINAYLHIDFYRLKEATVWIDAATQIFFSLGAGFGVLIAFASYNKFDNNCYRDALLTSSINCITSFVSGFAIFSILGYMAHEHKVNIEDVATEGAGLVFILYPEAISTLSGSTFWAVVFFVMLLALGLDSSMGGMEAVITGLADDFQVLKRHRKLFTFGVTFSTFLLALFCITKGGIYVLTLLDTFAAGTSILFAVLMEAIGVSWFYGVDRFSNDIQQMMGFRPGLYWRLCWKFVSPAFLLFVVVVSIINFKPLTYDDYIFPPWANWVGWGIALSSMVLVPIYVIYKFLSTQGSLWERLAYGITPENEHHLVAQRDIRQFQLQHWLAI

Point of comparison: `CNCC1Oc2ccccc2C1n1ccc2ccccc21` (racemic) [Example 11, (+/−)-1-[3-(1H-indol-1-yl)-2,3-dihydro-1-benzofuran-2-yl]-N-methyl methanamine hydrochloride], inhibition at 6 µM 42%. Against it:
- CNC[C@@H]1Oc2ccccc2[C@H]1N1CC(C)(C)c2cccc(F)c21 [Example 5, 1-[(2S,3R)-3-(7-fluoro-3,3-dimethyl-2,3-dihydro-1H-indol-1-yl)-2,3-dihydro-1-benzofuran-2-yl]-N-methylmethanamine hydrochloride] — higher, 63%
- CC(C)NC[C@@H]1Oc2ccccc2[C@H]1N1CC(C)(C)c2cccc(F)c21 [Example 6, N-{[(2S,3R)-3-(7-fluoro-3,3-dimethyl-2,3-dihydro-1H-indol-1-yl)-2,3-dihydro-1-benzofuran-2-yl]methyl}propan-2-amine hydrochloride] — lower, 30%
- CN(C)C[C@@H]1Oc2ccccc2[C@H]1N1CC(C)(C)c2cccc(F)c21 [Example 7, 1-[(2S,3R)-3-(7-fluoro-3,3-dimethyl-2,3-dihydro-1H-indol-1-yl)-2,3-dihydro-1-benzofuran-2-yl]-N,N-dimethylmethanamine hydrochloride] — lower, 37%
- CCNC[C@@H]1Oc2ccccc2[C@H]1N1CC(C)(C)c2cccc(F)c21 [Example 8, N-{[(2S,3R)-3-(7-fluoro-3,3-dimethyl-2,3-dihydro-1H-indol-1-yl)-2,3-dihydro-1-benzofuran-2-yl]methyl}ethanamine hydrochloride] — the same, 42%
- CNCC1Oc2cc(F)ccc2C1N1C(=O)C(C)(C)c2ccccc21 (stereo not drawn) [Example 14, 1-{6-fluoro-2-[(methylamino)methyl]-2,3-dihydro-1-benzofuran-3-yl}-3,3-dimethyl-1,3-dihydro-2H-indol-2-one hydrochloride] — higher, 54%

Same assay, conditions: MDCK-Net6 cells stably transfected with hNET; 3H norepinephrine uptake, 16 nM

Point of comparison: `CNC[C@H]1Oc2ccc(F)cc2[C@@H]1N1CC(C)(C)c2cccc(F)c21` [Example 13, 1-[(2R,3S)-5-fluoro-3-(7-fluoro-3,3-dimethyl-2,3-dihydro-1H-indol-1-yl)-2,3-dihydro-1-benzofuran-2-yl]-N-methylmethanamine hydrochloride], IC50 88.5 nM. Against it:
- CNCC1Oc2ccccc2C1N1CCc2ccccc21 (racemic) [Example 10, (+/−)-1-[3-(2,3-dihydro-1H-indol-1-yl)-2,3-dihydro-1-benzofuran-2-yl]-N-methylmethanamine hydrochloride] — 2.8-fold higher, 244 nM
- CNCC1Oc2ccccc2C1n1ccc2ccccc21 (racemic) [Example 11, (+/−)-1-[3-(1H-indol-1-yl)-2,3-dihydro-1-benzofuran-2-yl]-N-methyl methanamine hydrochloride] — 3.4-fold higher, 301 nM
- CNCC1Oc2cc(F)ccc2C1n1c(=O)n(C(C)C)c2cccc(F)c21 (racemic) [Example 18, 4-Fluoro-3-{(2SR,3RS)-6-fluoro-2-[(methylamino)methyl]-2,3-dihydro-1-benzofuran-3-yl}-1-isopropyl-1,3-dihydro-2H-benzimidazol-2-one hydrochloride] — 43-fold higher, 3800 nM
- CNC[C@@H]1Oc2cc(F)ccc2[C@H]1n1c(=O)n(C(C)C)c2cccc(F)c21 (single isomer, unassigned) [Example 19, hydrochloride] — 140-fold higher, 12400 nM
- CNC[C@H]1Oc2cc(F)ccc2[C@@H]1n1c(=O)n(C(C)C)c2cccc(F)c21 (single isomer, unassigned) [Example 20, hydrochloride] — 20-fold higher, 1750 nM
- CNC[C@H]1Oc2ccccc2[C@@H]1N1CC(C)(C)c2cccc(F)c21 [Example 1, 1-[(2R,3S)-3-(7-fluoro-3,3-dimethyl-2,3-dihydro-1H-indol-1-yl)-2,3-dihydro-1-benzofuran-2-yl]-N-methylmethanamine hydrochloride] — 3.3-fold lower, 27.2 nM
- CNC[C@H]1Oc2ccccc2[C@@H]1N1CC(C)(C)c2cc(F)ccc21 [Example 2, 1-[(2R,3S)-3-(5-fluoro-3,3-dimethyl-2,3-dihydro-1H-indol-1-yl)-2,3-dihydro-1-benzofuran-2-yl]-N-methylmethanamine hydrochloride] — 3.9-fold higher, 343 nM
- CN(C)C[C@H]1Oc2ccccc2[C@@H]1N1CC(C)(C)c2cccc(F)c21 [Example 3, 1-[(2R,3S)-3-(7-fluoro-3,3-dimethyl-2,3-dihydro-1H-indol-1-yl)-2,3-dihydro-1-benzofuran-2-yl]-N,N-dimethylmethanamine hydrochloride] — 3.6-fold higher, 319 nM
- CC1(C)CN([C@H]2c3ccccc3O[C@@H]2CN)c2c(F)cccc21 [Example 4, 1-[(2R,3S)-3-(7-fluoro-3,3-dimethyl-2,3-dihydro-1H-indol-1-yl)-2,3-dihydro-1-benzofuran-2-yl]methanamine hydrochloride] — within 1.5-fold, 95 nM
- CCOc1ccccc1O[C@H]1c2ccccc2O[C@@H]1CNC [Example 9, 1-[(2R,3S)-3-(2-ethoxyphenoxy)-2,3-dihydro-1-benzofuran-2-yl]-N-methylmethanamine hydrochloride] — 9.6-fold higher, 846 nM
- CNC[C@@H]1Oc2c(F)cccc2[C@H]1N1C(=O)C(C)(C)c2cccc(F)c21 [Example 12, 7-fluoro-1-{(2S,3R)-7-fluoro-2-[(methylamino)methyl]-2,3-dihydro-1-benzofuran-3-yl}-3,3-dimethyl-1,3-dihydro-2H-indol-2-one hydrochloride] — 12-fold higher, 1030 nM
- CNCC1Oc2ccccc2C1N1C(=O)C(C)(C)c2ccccc21 (stereo not drawn) [Example 15, 3,3-dimethyl-1-{2-[(methylamino)methyl]-2,3-dihydro-1-benzofuran-3-yl}-1,3-dihydro-2H-indol-2-one hydrochloride] — 13-fold higher, 1140 nM
- CNCC1Oc2ccccc2C1N1CCCc2ccccc21 (stereo not drawn) [Example 16, 1-[3-(3,4-dihydroquinolin-1(2H)-yl)-2,3-dihydro-1-benzofuran-2-yl]-N-methylmethanamine hydrochloride] — 9.2-fold higher, 811 nM
- CNCC1Oc2ccccc2C1N(C)c1ccccc1 (stereo not drawn) [Example 17, N-methyl-2-[(methylamino)methyl]-N-phenyl-2,3-dihydro-1-benzofuran-3-amine hydrochloride] — 40-fold higher, 3550 nM
